Our source for the IC50 values is patent publication US10301317B2, “Inhibitors of ERK and methods of use” (Kura Oncology, Inc., priority 2013, dated 2019).

The assay has as its system phospho-p90 RSK (RSK1 Thr359/Ser363) in A375 (Braf V600E) cells. In words: Phospho-p90 RSK ELISA using A375 (Braf V600E) cells. The assay is classed as cell-based. To be noted: Homo sapiens, A-375, 2 hours compound treatment, read-out: Cellular Phospho-p90RSK IC50. As for the experimental part:
In preparation for the assay, an ELISA plate with the pre-coated goat anti-mouse antibody (Thermo Scientific) was treated with a mouse anti-human RSK1 antibody (monoclonal, Invitrogen) at 1:800 dilution (150 ng/well) in PBS, and the plate was placed on a plate shaker at 4° C. overnight. […] After two […] of the compound treatment, the supernatant was removed from the cell plate, and cells were lysed in 100 μl per well of cell lysis buffer (Cell Signaling Technologies) containing phosphatase and protease inhibitors (Cell Signaling Technologies) on a plate shaker at 4° C. for 20 minutes. The ELISA plate was washed four times with ELISA wash buffer (Thermo Scientific) prior to addition of 100 μL cell lysate. The lysate was incubated on the ELISA plate with gentle shaking at room temperature for 2 hours. The contents of the wells were removed, and the ELISA plate was washed four times with wash buffer, and incubated with 100 μL per well of anti-phospho-RSK1 (Thr359/Ser363) rabbit monoclonal antibody (Millipore) at dilution of 1:1000 in StartingBlock buffer (Thermo Scientific) on a plate shaker at room temperature for 1 hour. The contents of the wells were removed, the ELISA plate was washed four times with wash buffer, and was incubated with 100 μL per well of goat anti-rabbit HRP (Thermo Scientific) at dilution of 1:3000 in StartingBlock buffer (Thermo Scientific) on a plate shaker at room temperature for 1 hour. The contents of the wells were removed, the ELISA plate was washed four times with wash buffer, and then incubated with 100 μL per well of TMB substrate solution (Thermo Scientific) on a plate shaker at room temperature for 20 minutes. Finally, 100 μL of TMB stop solution (Thermo Scientific) was added to each well and the absorbance is measured at 450 nm on a Tecan plate reader.

What is called IC50 is the point on the concentration scale where inhibition reaches its midpoint. In the case of `COc1ncc(-c2n[nH]c3cc4[nH]c(=O)c(C(C)c5cccc(Cl)c5)cc4cc23)cn1` (centres unmarked) [Example 129], the IC50 lay in the range of 250 to 1000 nM.

Regarding `Cc1ccc(CN2CCC[C@@H](N3Cc4cc5c(-c6ccnc(C)c6)n[nH]c5cc4NC3=O)C2)cn1` [Example 131], the IC50 was > 1000 nM.

With `Cc1cc(-c2n[nH]c3cc4c(cc23)CN([C@@H]2CCCN(Cc3cnn(C)c3)C2)C(=O)N4)ccn1` [Example 133], the IC50 is > 1000 nM.

Regarding `Cc1cc(-c2n[nH]c3cc4c(cc23)CN([C@@H]2CCCN(CC3CCC3)C2)C(=O)N4)ccn1` [Example 137], the IC50 lay in the range of 250 to 1000 nM.

With `Cc1cc(-c2n[nH]c3cc4c(cc23)CN([C@@H]2CCCN(CC3CC5CCC3C5)C2)C(=O)N4)ccn1` (some centres unmarked) [Example 142], the IC50 was ≤ 250 nM.

Regarding `Cc1cc(-c2n[nH]c3cc4c(cc23)CN([C@@H]2CCCN(CCc3ccccc3)C2)C(=O)N4)ccn1` [Example 145], the IC50 lay within 250 to 1000 nM.

As for `COc1ncccc1CN1CCC[C@@H](N2Cc3cc4c(-c5ccnc(C)c5)n[nH]c4cc3NC2=O)C1` [Example 150], the IC50 was ≤ 250 nM.

As for `Cc1cc(-c2n[nH]c3cc4c(cc23)CN([C@@H]2CCCN(CCC3CC3)C2)C(=O)N4)ccn1` [Example 155], the half-inhibitory concentration (IC50) is 250 to 1000 nM.

`Cc1cc(-c2n[nH]c3cc4c(cc23)CN(C2CCN(CCc3ccccc3)CC2)C(=O)N4)ccn1` [Example 157]: the IC50 was > 1000 nM.

Consider `Cc1cc(-c2n[nH]c3cc4c(cc23)CN([C@@H]2CCCN(Cc3ccc(Cl)cc3)C2)C(=O)N4)ccn1` [Example 159], for which the IC50 was in the range of 250 to 1000 nM.

Turning to `Cc1cc(-c2n[nH]c3cc4[nH]c(=O)c(C(C)C5CCCCC5)cc4cc23)ccn1` (centres unmarked) [Example 160], the IC50 was > 1000 nM.

As for `Cc1cc(-c2n[nH]c3cc4c(cc23)CN([C@@H]2CCCN(CCc3cccc(Cl)c3)C2)C(=O)N4)ccn1` [Example 164], the IC50 is > 1000 nM.

Turning to `Cc1cc(-c2n[nH]c3cc4c(cc23)CN([C@@H]2CCCN(Cc3cncnc3)C2)C(=O)N4)ccn1` [Example 166], the IC50 is > 1000 nM.

On to `Cc1cc(-c2n[nH]c3cc4c(cc23)CN([C@@H]2CCCN(CCc3ccc(F)cc3)C2)C(=O)N4)ccn1` [Example 167], for which the IC50 is > 1000 nM.

Consider `Cc1cc(-c2n[nH]c3cc4c(cc23)CN([C@@H]2CCCN(Cc3ncccc3C)C2)C(=O)N4)ccn1` [Example 168], for which the IC50 lay within 250 to 1000 nM.

In the case of `Cc1cc(-c2n[nH]c3cc4c(cc23)CN([C@@H]2CCCN(CCC(C)C)C2)C(=O)N4)ccn1` [Example 169], the IC50 lay within 250 to 1000 nM.

For `Cc1cc(-c2n[nH]c3cc4c(cc23)CN([C@@H]2CCCN(Cc3cccnc3C)C2)C(=O)N4)ccn1` [Example 170], the IC50 lay in the range of 250 to 1000 nM.

On to `Cc1cc(-c2n[nH]c3cc4c(cc23)CN([C@@H]2CCCN(Cc3ccccn3)C2)C(=O)N4)ccn1` [Example 171], for which the IC50 is > 1000 nM.

For `Cc1cc(-c2n[nH]c3cc4c(cc23)CN([C@@H]2CCCN(C(=O)c3ccccc3)C2)C(=O)N4)ccn1` [Example 172], the IC50 is 250 to 1000 nM.

As to `Cc1cc(-c2n[nH]c3cc4c(cc23)CN(CCNCc2ccc(F)c(Cl)c2)C(=O)N4)ccn1` [Example 173], the IC50 is > 1000 nM.

On to `Cc1cc(-c2n[nH]c3cc4c(cc23)CN(CCNCc2ccc(F)cc2)C(=O)N4)ccn1` [Example 175], for which the half-maximal inhibitory concentration (IC50) was in the range of 250 to 1000 nM.

Consider `Cc1cc(-c2n[nH]c3cc4c(cc23)CN(CCNCc2cccc(Cl)c2)C(=O)N4)ccn1` [Example 176], for which the IC50 is 250 to 1000 nM.

On to `Cc1cc(-c2n[nH]c3cc4c(cc23)CN([C@@H]2CCC[C@H](NCc3ccccc3)C2)C(=O)N4)ccn1` [Example 177], for which the IC50 fell in the range of 250 to 1000 nM.

With `Cc1cc(-c2n[nH]c3cc4c(cc23)CN([C@@H]2CCCN(CC3(C)CC3)C2)C(=O)N4)ccn1` [Example 182], the IC50 was 250 to 1000 nM.

`Cc1cc(-c2n[nH]c3cc4c(cc23)CN([C@@H]2CCCN(Cc3cnccc3C)C2)C(=O)N4)ccn1` [Example 183]: the IC50 fell in the range of 250 to 1000 nM.

Take `Cc1cc(-c2n[nH]c3cc4c(cc23)CN([C@@H]2CCCN(Cc3cc(C(C)(C)C)no3)C2)C(=O)N4)ccn1` [Example 186]: the IC50 was 250 to 1000 nM.
